From patent US12516038B2, “Inhibitors of antigen presentation by HLA-DR” (Janssen Pharmaceutica NV, priority 2020, dated 2026)

Tests used:
HLA-DRB1*0401 = HLA-DRB1*0401 (Homo sapiens (Human), UniProt P01903+P01911, A100K/A169T/DEL228-266/F76Y/I96L/K127E/L162R/M171V/N62H/P40V/Q125Y/R42H/S133A/S149N/S66Y/V115G/V209L/W38E); experiment: HLA-DR4 HTRF assay; assay type: binding; settings: inhibition of loading of Alexa Fluor 647-labeled Cit-CII peptide onto HLA-DR4 (CLIP cleaved)
In short: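 HLA-DRB1*04:01 construct (α/β fused to human Fc, CLIP pre-cleaved by HRV3C overnight at 4° C) at 3 nM was preincubated 45 min with compound and 1 nM anti-Fc-Tb donor, then 40 nM Alexa647-Cit-CII1236-1249 peptide added. After 90 min at 37° C, the 665/620 nm HTRF ratio gave % inhibition; IC50 by nonlinear regression.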

[1] = system: HLA-DR4 restricted mouse T cell hybridoma line (DR4.CII.36.8) with HLA-DRB1*04:01-expressing Boleth cells; experiment: HLA-DR4-restricted peptide-specific T cell-based assay (hybridoma assay); settings: Mus musculus, T-cell, 6 h, inhibition of IL-2 production, CII259-273 peptide presented by Boleth cells
In short: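 Boleth cells (HLA-DRB1*04:01 B cell line) pre-incubated with compound 1 h at 37° C. in DMEM/1% FCS, then DR4.CII.36.8 mouse T cell hybridoma (CII259-273-specific) added for 6 h with CII259-273 peptide. Supernatant mouse IL-2 by AlphaLISA; IC50 by 4-PL fit of 8-point duplicate titrations.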

[2] = system: human peripheral blood CD4+ helper T cells; experiment: Pan-CD4+ T cell activation (off-target assay); assay type: cell-based; settings: Homo sapiens, T-cell, 24 h, anti-CD3/anti-CD28 stimulation, IL-2 production by ELISA
In short: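 Human peripheral blood CD4+ T cells, with no APCs present, were stimulated with plate-bound anti-CD3 (1 μg/mL coating) plus soluble anti-CD28 (1 μg/mL) in the presence of compound or vehicle for 24 h. IL-2 in the supernatant was quantified by ELISA.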

Row | Structure (SMILES) | IC50 (HLA-DRB1*0401) | IC50 [1] | IC50 [2]
1 | CCc1cc2c(cc1O[C@H](c1ccncc1)c1ccc(C(N)=O)cc1)OCCC2=O (single isomer, unassigned) [Example 74b, (*S)-4-(((6-ethyl-4-oxochroman-7-yl)oxy)(pyridin-4-yl)methyl)benzamide] | 0.92 µM | 1.9 µM | 15 µM
2 | CC(C)c1c(O[C@@H](c2ccncc2)c2ccc(C(N)=O)cc2)ccc2c1OCCC2=O (single isomer, unassigned) [Example 75a, (*R)-4-(((8-isopropyl-4-oxochroman-7-yl)oxy)(pyridin-4-yl)methyl)benzamide] | 0.6 µM | 0.062 µM | 4.7 µM
3 | CC(C)c1c(O[C@H](c2ccncc2)c2ccc(C(N)=O)cc2)ccc2c1OCCC2=O (single isomer, unassigned) [Example 75b, (*S)-4-(((8-isopropyl-4-oxochroman-7-yl)oxy)(pyridin-4-yl)methyl)benzamide] | 0.63 µM | 0.18 µM | 9.3 µM
4 | CC(C)c1cc2c(cc1O[C@@H](c1ccncc1)c1ccc(C(N)=O)cc1)OCCC2=O (single isomer, unassigned) [Example 76a, (*R)-4-(((6-isopropyl-4-oxochroman-7-yl)oxy)(pyridin-4-yl)methyl)benzamide] | 0.65 µM | 0.32 µM | 2.2 µM
5 | CC(C)c1cc2c(cc1O[C@H](c1ccncc1)c1ccc(C(N)=O)cc1)OCCC2=O (single isomer, unassigned) [Example 76b, (*S)-4-(((6-isopropyl-4-oxochroman-7-yl)oxy)(pyridin-4-yl)methyl)benzamide] | 1 µM | 3.1 µM | 15 µM
6 | COc1cc(O[C@@H](c2ccncc2)c2ccc(C(N)=O)cc2)cc2c1C(=O)CCO2 (single isomer, unassigned) [Example 77a, (*R)-4-(((5-methoxy-4-oxochroman-7-yl)oxy)(pyridin-4-yl)methyl)benzamide] | 1.7 µM | 9.1 µM | > 15 µM
7 | COc1cc(O[C@H](c2ccncc2)c2ccc(C(N)=O)cc2)cc2c1C(=O)CCO2 (single isomer, unassigned) [Example 77b, (*S)-4-(((5-methoxy-4-oxochroman-7-yl)oxy)(pyridin-4-yl)methyl)benzamide] | 1.5 µM | 5.5 µM | 9.9 µM
8 | N#Cc1c(O[C@@H](c2ccncc2)c2ccc(C(N)=O)cc2)ccc2c1OCCC2=O (single isomer, unassigned) [Example 78a, (*R)-4-(((8-cyano-4-oxochroman-7-yl)oxy)(pyridin-4-yl)methyl)benzamide] | 0.47 µM | 2.3 µM | 9.9 µM
9 | N#Cc1c(O[C@H](c2ccncc2)c2ccc(C(N)=O)cc2)ccc2c1OCCC2=O (single isomer, unassigned) [Example 78b, (*S)-4-(((8-cyano-4-oxochroman-7-yl)oxy)(pyridin-4-yl)methyl)benzamide] | 0.45 µM | 0.47 µM | 15 µM
10 | NC(=O)c1ccc([C@@H](Oc2ccc3c(c2-c2ccc(-c4ccccc4)cc2)OCCC3=O)c2ccncc2)cc1 (single isomer, unassigned) [Example 79a, (*R)-4-(((8-([1,1′-biphenyl]-4-yl)-4-oxochroman-7-yl)oxy)(pyridin-4-yl)methyl)benzamide] | 28 µM | 0.47 µM | 3.1 µM
11 | NC(=O)c1ccc([C@H](Oc2ccc3c(c2-c2ccc(-c4ccccc4)cc2)OCCC3=O)c2ccncc2)cc1 (single isomer, unassigned) [Example 79b, (*S)-4-(((8-([1,1′-biphenyl]-4-yl)-4-oxochroman-7-yl)oxy)(pyridin-4-yl)methyl)benzamide] | 49 µM | 0.97 µM | > 15 µM
12 | CCCc1c(O[C@@H](c2ccncc2)c2ccc(C(N)=O)cc2)ccc2c1OCCC2=O (single isomer, unassigned) [Example 80a, (*R)-4-(((4-Oxo-8-propylchroman-7-yl)oxy)(pyridin-4-yl)methyl)benzamide] | 0.66 µM | 0.032 µM | 5.9 µM
13 | Cc1c(O[C@H](c2ccncc2)c2cccc(CNC(N)=O)c2)ccc2c1OCCC2=O (single isomer, unassigned) [Example 81b, (*S)-1-(3-(((8-methyl-4-oxochroman-7-yl)oxy)(pyridin-4-yl)methyl)benzyl)urea] | 0.61 µM | 1.3 µM | > 15 µM
14 | CCOc1cc(C(N)=O)ccc1[C@H](Oc1ccc2c(c1C)OCCC2=O)c1ccncc1 (single isomer, unassigned) [Example 83a, (*R)-3-ethoxy-4-(((8-methyl-4-oxochroman-7-yl)oxy)(pyridin-4-yl)methyl)benzamide] | 0.95 µM | 2.7 µM | 0.99 µM
15 | Cc1c(O[C@H](c2ccncc2)c2ccc(C(N)=O)cc2OC(C)C)ccc2c1OCCC2=O (single isomer, unassigned) [Example 84a, (*R)-3-isopropoxy-4-(((8-methyl-4-oxochroman-7-yl)oxy)(pyridin-4-yl)methyl)benzamide] | 1.2 µM | 0.79 µM | 0.47 µM
16 | Cc1c(O[C@@H](c2ccncc2)c2ccc(C(N)=O)cc2OC(C)C)ccc2c1OCCC2=O (single isomer, unassigned) [Example 84b, (*S)-3-isopropoxy-4-(((8-methyl-4-oxochroman-7-yl)oxy)(pyridin-4-yl)methyl)benzamide] | < 1 µM | 6.5 µM | 1.7 µM
17 | Cc1c(O[C@H](c2ccncc2)c2ccc(C(N)=O)cc2OCC(C)C)ccc2c1OCCC2=O (single isomer, unassigned) [Example 85a, (*R)-3-isobutoxy-4-(((8-methyl-4-oxochroman-7-yl)oxy)(pyridin-4-yl)methyl)benzamide] | 0.81 µM | 0.24 µM | 3.7 µM
18 | Cc1c(O[C@@H](c2ccncc2)c2ccc(C(N)=O)cc2OCC(C)C)ccc2c1OCCC2=O (single isomer, unassigned) [Example 85b, (*S)-3-isobutoxy-4-(((8-methyl-4-oxochroman-7-yl)oxy)(pyridin-4-yl)methyl)benzamide] | 1.1 µM | 3.9 µM | 0.47 µM
19 | Cc1c(O[C@H](c2ccncc2)c2ccc(C(N)=O)cc2OCc2ccccc2)ccc2c1OCCC2=O (single isomer, unassigned) [Example 86a, (*R)-3-(benzyloxy)-4-(((8-methyl-4-oxochroman-7-yl)oxy)(pyridin-4-yl)methyl)benzamide] | 0.74 µM | 0.072 µM | 2.5 µM
20 | Cc1c(O[C@@H](c2ccncc2)c2ccc(C(N)=O)cc2OCc2ccccc2)ccc2c1OCCC2=O (single isomer, unassigned) [Example 86b, (*S)-3-(benzyloxy)-4-(((8-methyl-4-oxochroman-7-yl)oxy)(pyridin-4-yl)methyl)benzamide] | 1 µM | 1.7 µM | 1.4 µM
21 | Cc1c(O[C@H](c2ccc(C(N)=O)cc2)c2ccnc(CCC(=O)O)c2)ccc2c1OCCC2=O (single isomer, unassigned) [Example 87a] | 0.58 µM | 0.83 µM | > 15 µM
22 | Cc1cc2c(c(C)c1O[C@@H](c1ccncc1)c1ccc(C#N)cc1)OCCC2=O (single isomer, unassigned) [Example 88a, (*R)-4-(((6,8-dimethyl-4-oxochroman-7-yl)oxy)(pyridin-4-yl)methyl)benzonitrile] | 0.4 µM | 2.2 µM | > 15 µM
23 | Cc1cc2c(c(C)c1O[C@H](c1ccncc1)c1ccc(C#N)cc1)OCCC2=O (single isomer, unassigned) [Example 88b, (*S)-4-(((6,8-dimethyl-4-oxochroman-7-yl)oxy)(pyridin-4-yl)methyl)benzonitrile] | 0.36 µM | 5.9 µM | 9.9 µM
24 | Cc1cc2c(c(C)c1O[C@@H](c1ccncc1)c1ccc(C(N)=O)cc1)OCCC2=O (single isomer, unassigned) [Example 89a, (*R)-4-(((6,8-dimethyl-4-oxochroman-7-yl)oxy)(pyridin-4-yl)methyl)benzamide] | 0.47 µM | 1.8 µM | 4.7 µM
25 | Cc1cc2c(c(C)c1O[C@H](c1ccncc1)c1ccc(C(N)=O)cc1)OCCC2=O (single isomer, unassigned) [Example 89b, (*S)-4-(((6,8-dimethyl-4-oxochroman-7-yl)oxy)(pyridin-4-yl)methyl)benzamide] | 0.47 µM | 1.2 µM | 4.7 µM
26 | Cc1c(O[C@H](c2ccc(C(N)=O)cc2)c2cccc(C#N)c2)c(F)cc2c1OCCC2=O (single isomer, unassigned) [Example 92a, (*R)-4-((3-cyanophenyl)((6-fluoro-8-methyl-4-oxochroman-7-yl)oxy)methyl)benzamide] | 0.3 µM | 0.31 µM | 9.9 µM
